Measured values taken from ChEMBL document CHEMBL6114982, “Structural optimization and characterization of highly potent and selective STAT3 inhibitors for the treatment of triple negative breast cancer” (Eur J Med Chem, 2025).
Calls of active or inactive are those of the source. The calls are words filed in the database; no cut-off is given here.

Experiments:
BT-549 [1] = test: Downregulation of STAT3 phosphorylation level in human BT-549 cells preincubated for 48 hrs followed by IL-6 addition and measured after 2 hrs by Western blot analysis; format: functional, cell-based; conditions: dose 0.05-0.5 µM, time 50.0 hrs
[2] = Toxicity in female BALB/c nude mouse assessed as effect on lung at 10 to 20 mg/kg, iv measured after 30 days by H and E staining based analysis; format: organism-based; conditions: in vivo, 720 h, dose 10-20 mg/kg, time 30 day
MDA-MB-231 [3] = test: Antitumor activity against human MDA-MB-231 cells xenografted in female nude BALB/c mouse model assessed as reduction in tumor volume at 20 mg/kg, ip administered every other day for 30 days (reference value: 1522.98 millimeter); format: functional; conditions: time 30 day
MDA-MB-231 [4] = test: Antitumor activity against human MDA-MB-231 cells xenografted in female nude BALB/c mouse model assessed as reduction in tumor volume at 10 mg/kg, ip administered every other day for 30 days (reference value: 1522.98 millimeter); format: functional; conditions: time 30 day
[5] = molecular target: T1, Signal transducer and activator of transcription 3 (Homo sapiens, UniProt P40763); test: Inhibition of STAT3 in human MDA-MB-231 cells assessed as downregulation of CCNB1 level; format: cell-based
[6] = Toxicity in female BALB/c nude mouse assessed as effect on kidney at 10 to 20 mg/kg, iv measured after 30 days by H and E staining based analysis; format: organism-based; conditions: in vivo, 720 h, dose 10-20 mg/kg, time 30 day
[7] = molecular target: Tyrosine-protein kinase JAK2 (Homo sapiens) (UniProt O60674); test: Inhibition of JAK2 (unknown origin) at upto 10 uM
[8] = molecular target: T1, Signal transducer and activator of transcription 3; test: Inhibition of STAT3 in human MDA-MB-231 cells assessed as upregulation of MCL1 level; format: cell-based
MDA-MB-231 [9] = test: Downregulation of Bcl-xl level in human MDA-MB-231 cells measured after 48 hrs by Western blot analysis; format: functional, cell-based; conditions: dose 0.05-0.5 µM
MDA-MB-231 [10] = test: Effect on STAT3 expression in human MDA-MB-231 cells at 0.1 microM measured after 8 to 48 hrs by Western blot analysis; format: functional, cell-based; conditions: time 8-48 hrs
MDA-MB-231 [11] = test: Induction of apoptosis in human MDA-MB-231 cells assessed as late apoptotic at 0.05 uM incubated for 48 hrs by Annexin V and PI staining based flow cytometry analysis (reference value: 2.71%); format: functional
BT-549 [12] = test: Effect on Akt phosphorylation level in human BT-549 cells at 0.05 to 0.5 uM measured after 48 hrs by Western blot analysis; format: functional, cell-based; conditions: dose 0.05-0.5 µM
[13] = molecular target: T1, Signal transducer and activator of transcription 3; test: Inhibition of STAT3 phosphorylation at Tyr705 residue at Tyr705 residue in human MDA-MB-231 cells measured after 8 to 48 hrs by Western blot analysis; format: cell-based; conditions: dose 0.1 µM, time 8-48 hrs
[14] = Half life in female BALB/c nude mouse administered as iv dose; format: ADME, organism-based; conditions: in vivo
BT-549 [15] = test: Effect on STAT3 expression in human BT-549 cells at 0.1 microM measured after 8 to 48 hrs by Western blot analysis; format: functional, cell-based; conditions: time 8-48 hrs
[16] = Toxicity in female BALB/c nude mouse assessed as effect on spleen at 10 to 20 mg/kg, iv measured after 30 days by H and E staining based analysis; format: organism-based; conditions: in vivo, 720 h, dose 10-20 mg/kg, time 30 day
MDA-MB-231 [17] = test: Inhibition of cell migration in human MDA-MB-231 cells assessed as reduction in wound closure proportion at 0.05 to 0.5 uM incubated for 24 hrs by inverted microscopic analysis; format: functional, cell-based; conditions: dose 0.05-0.5 µM
Homo sapiens = organism: Homo sapiens; test: Inhibition of SRC phosphorylation (unknown origin) at […] residue at upto 10 uM
MDA-MB-231 [18] = test: Effect on STAT5 phosphorylation level in human MDA-MB-231 cells at 0.05 to 0.5 uM measured after 48 hrs by Western blot analysis; format: functional, cell-based; conditions: dose 0.05-0.5 µM
[19] = molecular target: T2, Tyrosine-protein kinase JAK3 (Homo sapiens) (UniProt P52333); test: Inhibition of JAK3 (unknown origin) at upto 10 uM
T2 sequence (whole entry): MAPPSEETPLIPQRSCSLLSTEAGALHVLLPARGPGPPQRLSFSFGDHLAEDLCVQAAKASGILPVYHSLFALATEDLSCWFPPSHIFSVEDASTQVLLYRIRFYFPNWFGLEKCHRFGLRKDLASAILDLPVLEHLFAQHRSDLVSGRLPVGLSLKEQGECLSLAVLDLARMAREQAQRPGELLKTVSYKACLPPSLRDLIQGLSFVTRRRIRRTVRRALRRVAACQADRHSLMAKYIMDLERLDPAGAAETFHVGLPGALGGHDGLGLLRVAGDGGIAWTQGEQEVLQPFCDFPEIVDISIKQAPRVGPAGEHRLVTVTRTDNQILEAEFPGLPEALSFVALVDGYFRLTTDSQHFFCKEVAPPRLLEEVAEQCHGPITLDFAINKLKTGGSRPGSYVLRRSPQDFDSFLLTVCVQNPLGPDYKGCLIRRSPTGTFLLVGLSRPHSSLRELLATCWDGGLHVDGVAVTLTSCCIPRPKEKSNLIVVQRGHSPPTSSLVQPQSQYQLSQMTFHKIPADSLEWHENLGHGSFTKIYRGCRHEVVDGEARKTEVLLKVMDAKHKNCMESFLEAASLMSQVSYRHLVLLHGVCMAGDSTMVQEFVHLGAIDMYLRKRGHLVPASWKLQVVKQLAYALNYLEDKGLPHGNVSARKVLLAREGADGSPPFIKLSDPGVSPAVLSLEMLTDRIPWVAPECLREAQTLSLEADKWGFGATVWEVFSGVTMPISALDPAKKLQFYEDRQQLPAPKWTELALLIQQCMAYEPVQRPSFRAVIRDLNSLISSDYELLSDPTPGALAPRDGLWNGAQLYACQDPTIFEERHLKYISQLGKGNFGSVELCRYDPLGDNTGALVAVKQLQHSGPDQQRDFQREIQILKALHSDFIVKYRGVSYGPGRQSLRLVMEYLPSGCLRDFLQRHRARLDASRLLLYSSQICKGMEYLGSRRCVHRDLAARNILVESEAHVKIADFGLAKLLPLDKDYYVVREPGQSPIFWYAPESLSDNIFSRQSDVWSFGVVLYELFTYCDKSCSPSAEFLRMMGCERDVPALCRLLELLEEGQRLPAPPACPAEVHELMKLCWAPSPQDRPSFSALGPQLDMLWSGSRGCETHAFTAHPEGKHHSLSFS

[20] = molecular target: Tyrosine-protein kinase JAK1 (Homo sapiens) (UniProt P23458); test: Inhibition of JAK1 (unknown origin) at upto 10 uM
[21] = molecular target: Epidermal growth factor receptor (Homo sapiens) (UniProt P00533); test: Inhibition of EGFR (unknown origin) at upto 10 uM
MDA-MB-231 [22] = test: Downregulation of N-cadherin expression level in human MDA-MB-231 cells by Western blot analysis; format: functional, cell-based
BT-549 [23] = test: Effect on ERK1/2 phosphorylation level in human BT-549 cells at 0.05 to 0.5 uM measured after 48 hrs by Western blot analysis; format: functional, cell-based; conditions: dose 0.05-0.5 µM
MDA-MB-231 [24] = test: Downregulation of STAT3 phosphorylation level in human MDA-MB-231 cells preincubated for 48 hrs followed by IL-6 addition and measured after 2 hrs by Western blot analysis; format: functional, cell-based; conditions: dose 0.05-0.5 µM, time 50.0 hrs

T1 sequence (P40763 whole entry): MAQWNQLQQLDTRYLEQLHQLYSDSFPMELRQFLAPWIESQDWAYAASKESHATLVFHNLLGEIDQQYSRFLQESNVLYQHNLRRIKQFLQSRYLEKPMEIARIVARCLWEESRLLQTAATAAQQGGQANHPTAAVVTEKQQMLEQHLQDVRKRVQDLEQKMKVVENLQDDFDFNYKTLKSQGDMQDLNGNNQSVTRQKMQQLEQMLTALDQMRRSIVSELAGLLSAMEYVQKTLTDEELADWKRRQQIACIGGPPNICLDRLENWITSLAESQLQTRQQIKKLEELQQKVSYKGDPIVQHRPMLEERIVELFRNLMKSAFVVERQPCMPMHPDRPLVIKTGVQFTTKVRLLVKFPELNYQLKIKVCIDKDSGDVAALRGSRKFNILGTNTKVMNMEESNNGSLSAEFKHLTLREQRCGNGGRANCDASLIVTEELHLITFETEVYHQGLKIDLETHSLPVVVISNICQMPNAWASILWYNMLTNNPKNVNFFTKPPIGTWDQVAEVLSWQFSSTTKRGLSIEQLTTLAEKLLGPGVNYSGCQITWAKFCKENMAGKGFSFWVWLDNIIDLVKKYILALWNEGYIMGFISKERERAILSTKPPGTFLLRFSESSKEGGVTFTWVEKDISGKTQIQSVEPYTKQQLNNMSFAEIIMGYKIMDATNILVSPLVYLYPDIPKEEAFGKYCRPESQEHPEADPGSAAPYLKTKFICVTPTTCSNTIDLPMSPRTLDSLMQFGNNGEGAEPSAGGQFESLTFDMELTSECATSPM
Tyrosine-protein kinase JAK1 (Homo sapiens), sequence (P23458 whole entry): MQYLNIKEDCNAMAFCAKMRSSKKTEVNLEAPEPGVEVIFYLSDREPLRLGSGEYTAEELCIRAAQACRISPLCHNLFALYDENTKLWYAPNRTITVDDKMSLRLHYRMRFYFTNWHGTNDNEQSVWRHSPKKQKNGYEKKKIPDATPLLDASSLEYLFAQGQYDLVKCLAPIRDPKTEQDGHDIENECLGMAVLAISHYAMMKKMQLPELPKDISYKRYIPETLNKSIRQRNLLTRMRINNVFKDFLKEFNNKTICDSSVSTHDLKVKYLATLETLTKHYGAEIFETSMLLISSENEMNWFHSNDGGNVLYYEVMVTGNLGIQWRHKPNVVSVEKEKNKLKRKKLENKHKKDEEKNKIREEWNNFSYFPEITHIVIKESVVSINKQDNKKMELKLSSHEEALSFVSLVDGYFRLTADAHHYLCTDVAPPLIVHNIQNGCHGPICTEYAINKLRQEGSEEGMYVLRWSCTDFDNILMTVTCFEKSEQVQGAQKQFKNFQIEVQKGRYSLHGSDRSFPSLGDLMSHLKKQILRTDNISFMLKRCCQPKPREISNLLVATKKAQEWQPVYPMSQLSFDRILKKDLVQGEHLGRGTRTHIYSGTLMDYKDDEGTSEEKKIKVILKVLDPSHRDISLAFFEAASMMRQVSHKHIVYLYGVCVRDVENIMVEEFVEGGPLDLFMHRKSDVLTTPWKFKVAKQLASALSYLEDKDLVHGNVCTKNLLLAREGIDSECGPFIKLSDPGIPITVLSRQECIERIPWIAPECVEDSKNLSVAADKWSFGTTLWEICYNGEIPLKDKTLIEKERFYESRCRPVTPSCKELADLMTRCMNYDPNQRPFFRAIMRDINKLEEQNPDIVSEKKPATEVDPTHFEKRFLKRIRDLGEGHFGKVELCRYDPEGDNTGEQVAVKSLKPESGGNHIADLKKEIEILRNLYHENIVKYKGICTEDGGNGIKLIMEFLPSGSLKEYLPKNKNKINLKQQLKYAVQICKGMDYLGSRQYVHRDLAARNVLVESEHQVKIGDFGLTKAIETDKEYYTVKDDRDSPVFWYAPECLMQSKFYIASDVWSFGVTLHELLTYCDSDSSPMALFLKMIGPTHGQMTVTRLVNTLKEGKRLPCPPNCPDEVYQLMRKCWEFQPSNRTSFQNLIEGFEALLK
Tyrosine-protein kinase JAK2 (Homo sapiens), sequence (O60674 whole entry): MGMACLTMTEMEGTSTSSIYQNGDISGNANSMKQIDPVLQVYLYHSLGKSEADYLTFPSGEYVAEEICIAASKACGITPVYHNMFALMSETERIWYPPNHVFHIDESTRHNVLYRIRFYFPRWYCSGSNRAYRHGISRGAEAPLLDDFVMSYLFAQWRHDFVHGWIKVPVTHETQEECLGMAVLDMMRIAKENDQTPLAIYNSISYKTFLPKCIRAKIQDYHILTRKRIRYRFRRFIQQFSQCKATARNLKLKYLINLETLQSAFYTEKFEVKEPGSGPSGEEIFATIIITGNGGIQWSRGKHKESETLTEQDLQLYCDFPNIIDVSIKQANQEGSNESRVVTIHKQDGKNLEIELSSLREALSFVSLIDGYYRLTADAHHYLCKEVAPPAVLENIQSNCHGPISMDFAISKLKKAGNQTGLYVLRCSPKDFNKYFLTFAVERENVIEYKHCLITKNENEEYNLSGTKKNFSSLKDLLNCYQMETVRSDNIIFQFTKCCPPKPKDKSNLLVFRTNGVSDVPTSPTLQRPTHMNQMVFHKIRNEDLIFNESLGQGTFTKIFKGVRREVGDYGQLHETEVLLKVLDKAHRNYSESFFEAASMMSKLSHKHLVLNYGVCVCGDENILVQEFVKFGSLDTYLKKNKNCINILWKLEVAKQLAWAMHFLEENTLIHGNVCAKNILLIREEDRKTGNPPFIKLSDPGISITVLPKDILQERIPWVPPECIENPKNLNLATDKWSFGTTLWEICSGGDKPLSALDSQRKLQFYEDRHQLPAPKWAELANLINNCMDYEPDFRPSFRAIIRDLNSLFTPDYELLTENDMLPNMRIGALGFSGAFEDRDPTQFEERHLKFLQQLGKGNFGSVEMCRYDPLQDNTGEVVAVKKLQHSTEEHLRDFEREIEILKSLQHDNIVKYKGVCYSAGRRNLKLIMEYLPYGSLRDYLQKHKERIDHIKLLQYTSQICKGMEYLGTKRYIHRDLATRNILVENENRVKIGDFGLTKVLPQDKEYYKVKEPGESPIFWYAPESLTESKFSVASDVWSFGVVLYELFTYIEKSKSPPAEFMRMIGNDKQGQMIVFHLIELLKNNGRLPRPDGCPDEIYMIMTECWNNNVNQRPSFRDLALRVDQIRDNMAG
Epidermal growth factor receptor (Homo sapiens), sequence (P00533 whole entry): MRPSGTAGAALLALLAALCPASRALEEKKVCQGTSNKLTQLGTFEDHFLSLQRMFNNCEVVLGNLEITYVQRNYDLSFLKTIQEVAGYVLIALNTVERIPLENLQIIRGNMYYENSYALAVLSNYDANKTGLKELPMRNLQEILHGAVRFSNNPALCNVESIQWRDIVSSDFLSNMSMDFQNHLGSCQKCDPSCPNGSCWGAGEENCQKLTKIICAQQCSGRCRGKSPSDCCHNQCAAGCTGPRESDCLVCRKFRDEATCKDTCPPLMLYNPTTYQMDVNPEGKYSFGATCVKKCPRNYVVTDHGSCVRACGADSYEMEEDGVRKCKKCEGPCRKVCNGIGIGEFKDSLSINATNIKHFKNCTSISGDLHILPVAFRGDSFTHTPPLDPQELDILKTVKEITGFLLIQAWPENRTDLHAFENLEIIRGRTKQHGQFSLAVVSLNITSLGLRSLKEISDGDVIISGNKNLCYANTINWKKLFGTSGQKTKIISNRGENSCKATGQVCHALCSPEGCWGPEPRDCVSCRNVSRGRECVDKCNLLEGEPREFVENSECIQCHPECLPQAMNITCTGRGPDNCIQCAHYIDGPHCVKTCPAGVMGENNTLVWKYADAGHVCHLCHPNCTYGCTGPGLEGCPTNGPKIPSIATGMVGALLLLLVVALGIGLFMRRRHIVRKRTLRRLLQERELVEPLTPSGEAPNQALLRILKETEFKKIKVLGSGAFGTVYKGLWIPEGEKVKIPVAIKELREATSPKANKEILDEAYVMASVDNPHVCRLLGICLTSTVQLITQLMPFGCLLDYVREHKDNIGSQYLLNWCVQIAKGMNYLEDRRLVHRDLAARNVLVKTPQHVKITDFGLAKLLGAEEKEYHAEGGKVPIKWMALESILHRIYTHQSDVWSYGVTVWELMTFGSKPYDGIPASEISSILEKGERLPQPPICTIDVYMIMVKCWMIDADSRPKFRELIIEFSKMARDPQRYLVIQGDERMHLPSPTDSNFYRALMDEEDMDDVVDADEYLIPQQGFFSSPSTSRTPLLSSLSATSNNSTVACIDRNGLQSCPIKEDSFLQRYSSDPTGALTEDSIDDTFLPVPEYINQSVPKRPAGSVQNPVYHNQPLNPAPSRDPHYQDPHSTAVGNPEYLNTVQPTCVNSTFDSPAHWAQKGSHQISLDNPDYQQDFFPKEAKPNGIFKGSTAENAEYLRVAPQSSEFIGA

- inhibition [5]: Active
- inhibition [8]: Active
- inhibition [13]: Dose-dependent-effect
- half-life [14]: 23 h
Structure (SMILES): COc1cccc(C(=O)Nc2sc3c(c2C#N)CCN(C(=O)Nc2ccccc2OC)C3)c1
- Activity (BT-549 [1]): Dose-dependent-effect
- Activity [2]: Non-toxic
- tumor volume (MDA-MB-231 [3]): 656 mm³
- tumor volume (MDA-MB-231 [4]): 762 mm³
- Activity [6]: Non-toxic
- inhibition [7]: Active; Compound Showed Little Inhibitory Effect
- Activity (MDA-MB-231 [9]): Dose-dependent-effect
- Activity (MDA-MB-231 [10]): Active; Compound Showed Little Impact On Stat3 Expression
- Activity (MDA-MB-231 [11]): 12.78%
- Activity (BT-549 [12]): inactive
- Activity (BT-549 [15]): Active; Compound Showed Little Impact On Stat3 Expression
- Activity [16]: Non-toxic
- inhibition (MDA-MB-231 [17]): Active
- inhibition (Homo sapiens): Active; Compound Showed Little Inhibitory Effect
- Activity (MDA-MB-231 [18]): inactive
- inhibition [19]: Active; Compound Showed Little Inhibitory Effect
- inhibition [20]: Active; Compound Showed Little Inhibitory Effect
- inhibition [21]: Active; Compound Showed Little Inhibitory Effect
- Activity (MDA-MB-231 [22]): Active
- Activity (BT-549 [23]): inactive
- Activity (MDA-MB-231 [24]): Dose-dependent-effect
